Assay: molar heat capacity at constant volume
Details: Liquid, Vacuum adiabatic calorimetry

CCC [propane]
Details | molar heat capacity at constant volume [J/K/mol]
207.03 K, 12468 kPa | 63.03
208.02 K, 13633 kPa | 63.07
209.59 K, 15407 kPa | 63.29
210.57 K, 16525 kPa | 63.38
212.13 K, 18295 kPa | 63.46
213.11 K, 19392 kPa | 63.48
214.66 K, 21152 kPa | 63.9
215.63 K, 22244 kPa | 63.92
217.18 K, 23972 kPa | 64.21
218.15 K, 25069 kPa | 64.71
219.69 K, 26749 kPa | 64.74
220.66 K, 27850 kPa | 64.89
222.18 K, 29491 kPa | 65.36
223.14 K, 30548 kPa | 65.25
224.67 K, 32203 kPa | 65.68
224.72 K, 3002 kPa | 64.29
225.63 K, 33221 kPa | 66
225.69 K, 3945 kPa | 64.4
227.28 K, 5514 kPa | 64.59
228.26 K, 6458 kPa | 64.54
229.84 K, 8010 kPa | 64.8
230.82 K, 8990 kPa | 65.2
232.38 K, 10480 kPa | 64.79
233.38 K, 11478 kPa | 65.49
234.92 K, 12923 kPa | 65.31
235.92 K, 13904 kPa | 65.71
237.46 K, 15350 kPa | 65.71
238.46 K, 16299 kPa | 66.07
239.99 K, 17746 kPa | 65.96
240.99 K, 18681 kPa | 66.68
242.51 K, 20123 kPa | 66.43
243.5 K, 21054 kPa | 66.99
245.03 K, 22471 kPa | 67.42
246.01 K, 23413 kPa | 67.65
247.54 K, 24804 kPa | 67.75
248.53 K, 25750 kPa | 67.69
249.66 K, 2670 kPa | 66.76
250.04 K, 27105 kPa | 67.7
250.68 K, 3498 kPa | 66.65
251.02 K, 28035 kPa | 68.22
252.25 K, 4769 kPa | 67.25
252.53 K, 29385 kPa | 68.06
253.26 K, 5557 kPa | 67.47
253.52 K, 30287 kPa | 68.63
254.85 K, 6861 kPa | 67.69
255.02 K, 31645 kPa | 68.71
255.85 K, 7667 kPa | 67.82
256 K, 32529 kPa | 69.58
257.44 K, 8938 kPa | 67.87
258.44 K, 9764 kPa | 67.88
260.02 K, 10999 kPa | 68.4
261.02 K, 11824 kPa | 68.53
262.61 K, 13051 kPa | 68.83
263.6 K, 13861 kPa | 69.03
265.2 K, 15091 kPa | 69.38
266.18 K, 15878 kPa | 69.32
267.79 K, 17120 kPa | 69.94
268.76 K, 17881 kPa | 69.68

— the NIST ThermoML archive (doi:10.1021/je900137r)
